Reference: patent US20230159509A1 (Amathus Therapeutics, Inc., priority 2020, published 2023)

Target: T1, TRAP1 enzyme (Homo sapiens, UniProt Q12931)
T1 construct: 150 nM Trap1 enzyme was incubated with various concentrations of the test compound
T1 sequence (Q12931 60-704): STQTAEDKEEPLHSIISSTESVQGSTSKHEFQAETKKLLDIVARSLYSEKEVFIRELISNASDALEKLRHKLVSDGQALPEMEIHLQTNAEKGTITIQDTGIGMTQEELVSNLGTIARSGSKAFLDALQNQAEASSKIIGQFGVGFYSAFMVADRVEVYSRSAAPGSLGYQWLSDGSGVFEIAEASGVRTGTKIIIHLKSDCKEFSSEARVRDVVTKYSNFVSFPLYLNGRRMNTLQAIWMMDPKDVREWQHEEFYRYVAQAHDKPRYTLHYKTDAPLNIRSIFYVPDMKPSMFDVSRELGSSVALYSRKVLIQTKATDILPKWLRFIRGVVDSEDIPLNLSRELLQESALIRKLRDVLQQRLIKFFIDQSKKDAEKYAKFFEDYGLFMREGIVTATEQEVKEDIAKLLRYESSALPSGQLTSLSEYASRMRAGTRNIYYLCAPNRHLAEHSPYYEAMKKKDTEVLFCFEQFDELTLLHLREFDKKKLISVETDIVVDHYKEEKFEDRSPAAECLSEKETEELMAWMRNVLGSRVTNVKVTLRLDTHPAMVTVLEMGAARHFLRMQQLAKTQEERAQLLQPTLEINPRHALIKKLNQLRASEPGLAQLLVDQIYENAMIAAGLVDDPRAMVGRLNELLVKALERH
Experiment: ADP Glo assay of TRAP1 ATPase activity
Assay type: biochemical
Conditions: for activation at 50 µM: 1 h, compound concentration 50 μM, read-out: ADP-Glo Percent Activation at 50 μM; for EC50: concentration for half maximal activation, read-out: ADP GLO DRC: GeoMean EC50; for Emax: maximal percent activation, read-out: ADP GLO DRC: Mean Emax
Method: Potency of test compounds to modulate the ATPase activity of TRAP1 enzyme was evaluated using ADP Glo assay. The assay is based on quantification of the ADP generated from ATP in the ATPase reaction. The assay is performed in two steps; first, after the ATPase reaction an equal volume of ADP-Glo™ Reagent is added to terminate the ATPase reaction and deplete the remaining ATP. Second, the Kinase Detection Reagent is added to simultaneously convert ADP to ATP and allow the newly synthesized ATP to be measured using a luciferase/luciferin reaction.
All the assays were carried out in a 384-well Proxiplate. The buffer used was 25 mM Pipes pH-7.5, 40 mM KCl, 0.05 mM MgCl2, 0.025% BSA, 0.316 mM EGTA, 0.003% Empigen, 0.01% Igepal. 150 nM Trap1 enzyme was incubated with various concentrations of the test compound (0.79 μM-100 μM) at 37° C. for 30 mins (except in blank wells). 20 μM ATP was added to each well to start the reaction. The plate was spun for 1 min at 1200 rpm and then incubated at 37° C. for 60 mins. 5 μl of ADP Glo reagent was added to all the wells and spun the plate for 1 min at 1200 rpm and kept it on a shaker at ambient temperature for 60 mins. 10 μl of kinase detection mix was added to all the wells and the plate was read for Luminescence at 495 nm. The amount of ADP released was estimated from ATP/ADP standard curve generated at the same experimental conditions. Emax (Maximal percent activation) and EC50 (concentration for half maximal activation) were estimated by fitting the dose response data to a sigmoidal curve fitting equation using Graphpad Prism software V. 8.

activation at 50 µM [%] | EC50 [µM] | Emax [%] | SMILES
181 to 352 | – | – | COc1nc2c(cc1C(=O)Nc1cnc(OC)c(S(=O)(=O)Nc3c(C)cccc3C)c1)CCC2 [compound 2790]
181 to 352 | – | – | CCCc1cc(C(=O)Nc2cnc(OC)c(S(=O)(=O)Nc3c(C)cccc3C)c2)n(C)n1 [compound 2626]
120 to 150 | – | – | COc1ncc(NC(=O)c2cn[nH]c2C)cc1S(=O)(=O)Nc1c(C)cccc1C [compound 2724]
– | 20 to 100 | 119 to 159 | COc1ncc(NC(=O)c2csc(-c3ccccc3)n2)cc1S(=O)(=O)Nc1ccnc2cccnc12 [compound 1779]
– | 20 to 100 | > 300 | COc1ncc(NC(=O)c2cccc3ncoc23)cc1S(=O)(=O)Nc1c(C)cccc1C [compound 1367, N-(5-(N-(2,6-dimethylphenyl)sulfamoyl)-6-methoxypyridin-3-yl)benzo[d]oxazole-7-carboxamide]
– | < 10 | 200 to 300 | COc1ncc(NC(=O)c2coc(-c3ccccc3)n2)cc1S(=O)(=O)Nc1c(C)cccc1C1CC1 [compound 1986, N-(5-(N-(2-cyclopropyl-6-methylphenyl)sulfamoyl)-6-methoxypyridin-3-yl)-2-phenyloxazole-4-carboxamide]
151 to 180 | – | – | COc1ncc(NC(=O)c2cccc3c2C(=O)NC3)cc1S(=O)(=O)Nc1c(C)cccc1C [compound 2719]
– | 20 to 100 | 200 to 300 | COc1ncc(NC(=O)c2ccnc(Br)c2)cc1S(=O)(=O)Nc1c(C)cccc1C [compound 1935, 1,2-bromo-N-(5-(N-(2,6-dimethylphenyl)sulfamoyl)-6-methoxypyridin-3-yl)isonicotinamide]
– | 10 to 20 | 200 to 300 | COc1ccc(F)cc1C(=O)Nc1cnc(OC)c(S(=O)(=O)Nc2c(C)cccc2C)c1 [compound 1990, N-(5-(N-(2,6-dimethylphenyl)sulfamoyl)-6-methoxypyridin-3-yl)-5-fluoro-2-methoxybenzamide]
181 to 352 | – | – | CCn1nc(C(=O)Nc2cnc(OC)c(S(=O)(=O)Nc3c(C)cccc3C)c2)cc1C [compound 2691]
181 to 352 | – | – | COc1ncc(NC(=O)c2cccc(N3CCOCC3)c2C)cc1S(=O)(=O)Nc1c(C)cccc1C [compound 2782]
151 to 180 | – | – | COc1ncc(NC(=O)c2cc(OC)n(C)n2)cc1S(=O)(=O)Nc1c(C)cccc1C [compound 2747]
151 to 180 | – | – | COc1ncc(NC(=O)c2nc3ccccn3n2)cc1S(=O)(=O)Nc1c(C)cccc1C [compound 2558]
– | 20 to 100 | 119 to 159 | COc1ncc(NC(=O)c2noc3c2CCCC3)cc1S(=O)(=O)Nc1ccc(Cl)cc1 [compound 1194, N-(5-(N-(4-chlorophenyl)sulfamoyl)-6-methoxypyridin-3-yl)-4,5,6,7-tetrahydrobenzo[d]isoxazole-3-carboxamide]
– | 20 to 100 | 160 to 199 | COc1ncc(NC(=O)c2ncc(-c3ccccc3)o2)cc1S(=O)(=O)Nc1nc(C(C)(C)C)ns1 [compound 2396]
– | 20 to 100 | 200 to 300 | COc1ncc(NC(=O)c2coc(-c3cc(F)c(F)c(F)c3)n2)cc1S(=O)(=O)Nc1cccc(C(F)(F)F)n1 [compound 2151]
– | 20 to 100 | 119 to 159 | COc1ncc(NC(=O)c2csc(-c3ccccc3)n2)cc1S(=O)(=O)Nc1c(C)cnn1C [compound 1729]
– | 10 to 20 | 160 to 199 | COc1ncc(NC(=O)c2cccc(-n3cncn3)c2)cc1S(=O)(=O)Nc1ccc(Cl)cc1 [compound 1204, N-(5-(N-(4-chlorophenyl)sulfamoyl)-6-methoxypyridin-3-yl)-3-(1H-1,2,4-triazol-1-yl)benzamide]
151 to 180 | – | – | COc1ncc(NC(=O)c2ccc(F)cc2)cc1S(=O)(=O)Nc1c(C)cccc1C [compound 2542]
151 to 180 | – | – | COc1ncc(NC(=O)c2nc(C(F)(F)F)cs2)cc1S(=O)(=O)Nc1c(C)cccc1C [compound 2659]
120 to 150 | – | – | COc1ncc(NC(=O)c2ccc(OCC(F)(F)F)cc2)cc1S(=O)(=O)Nc1c(C)cccc1C [compound 2662]
151 to 180 | – | – | COc1ncc(NC(=O)c2ccc(NC(C)=O)c(C)c2)cc1S(=O)(=O)Nc1c(C)cccc1C [compound 2688]

activation at 50 µM [%] | EC50 [µM] | Emax [%] | SMILES
– | 20 to 100 | 160 to 199 | CNc1ncc(C(F)(F)F)cc1NS(=O)(=O)c1cc(NC(=O)c2ncc(-c3ccccc3)o2)cnc1OC [compound 1824]
120 to 150 | – | – | COc1ncc(NC(=O)c2ncco2)cc1S(=O)(=O)Nc1c(C)cccc1C [compound 2712]
181 to 352 | – | – | COc1ncc(NC(=O)c2cccc(N3CCOCC3)n2)cc1S(=O)(=O)Nc1c(C)cccc1C [compound 2584]
151 to 180 | – | – | COc1ncc(NC(=O)c2cccc3c2CCC(=O)N3)cc1S(=O)(=O)Nc1c(C)cccc1C [compound 2525]
– | 20 to 100 | 200 to 300 | COc1ncc(NC(=O)c2coc(-c3cccnc3)n2)cc1S(=O)(=O)Nc1c(C)cccc1C [compound 2387]
– | 20 to 100 | 119 to 159 | COc1ncc(NC(=O)c2csc(-c3ccccc3)n2)cc1S(=O)(=O)Nc1sccc1C [compound 1954, N-(6-methoxy-5-(N-(3-methylthiophen-2-yl)sulfamoyl)pyridin-3-yl)-2-phenylthiazole-4-carboxamide]
– | 20 to 100 | 200 to 300 | COc1ncc(NC(=O)c2csc(-c3ccccc3)n2)cc1S(=O)(=O)Nc1ccc(C#N)nc1 [compound 1785]
– | 20 to 100 | 200 to 300 | COc1ncc(NC(=O)c2coc(-c3ccccc3)n2)cc1S(=O)(=O)Nc1cc(C(F)(F)F)n[nH]1 [compound 2156]
151 to 180 | – | – | COc1cncc(C(=O)Nc2cnc(OC)c(S(=O)(=O)Nc3c(C)cccc3C)c2)c1 [compound 2545]
120 to 150 | – | – | COc1ncc(NC(=O)c2cnn(C)c2C)cc1S(=O)(=O)Nc1c(C)cccc1C [compound 2776]
– | < 10 | 160 to 199 | COc1ncc(NC(=O)c2ncc(-c3ccccc3)o2)cc1S(=O)(=O)Nc1ccc(F)c(F)c1C [compound 2366]
– | < 10 | 119 to 159 | COc1ncc(NC(=O)c2coc(-c3ccccc3)n2)cc1S(=O)(=O)Nc1c(C)cc(C#N)cc1C [compound 1965, N-(5-(N-(4-cyano-2,6-dimethylphenyl)sulfamoyl)-6-methoxypyridin-3-yl)-2-phenyloxazole-4-carboxamide]
151 to 180 | – | – | COc1ncc(NC(=O)c2ccccc2[S@+](C)[O-])cc1S(=O)(=O)Nc1c(C)cccc1C [compound 2581]
– | < 10 | 200 to 300 | COc1ncc(NC(=O)c2csc(-c3cccc(OCC(O)CO)n3)n2)cc1S(=O)(=O)Nc1c(C)cccc1C (stereo not drawn) [compound 2463]
181 to 352 | – | – | COc1ncc(NC(=O)c2ncsc2C)cc1S(=O)(=O)Nc1c(C)cccc1C [compound 2667]
120 to 150 | – | – | COc1ncc(NC(=O)c2ccnn2C(C)C)cc1S(=O)(=O)Nc1c(C)cccc1C [compound 2553]
– | 10 to 20 | 160 to 199 | COc1ncc(NC(=O)c2coc(-c3ccccc3)n2)cc1S(=O)(=O)Nc1cccc2cnc(C)cc12 [compound 2447]
– | 10 to 20 | 119 to 159 | COc1ncc(NC(=O)c2ncc(-c3ccccc3)o2)cc1S(=O)(=O)Nc1nc(C(F)(F)F)ccc1C [compound 2512]
120 to 150 | – | – | COc1ncc(NC(=O)c2cn(C)nc2C(F)F)cc1S(=O)(=O)Nc1c(C)cccc1C [compound 2551]
– | < 10 | 160 to 199 | COc1ncc(NC(=O)c2coc(-c3ccccc3)n2)cc1S(=O)(=O)Nc1c(C)ccc(C#N)c1C [compound 2072]
151 to 180 | – | – | COc1ncc(NC(=O)c2cccc(CN3CCCC3)c2)cc1S(=O)(=O)Nc1c(C)cccc1C [compound 2591]

SMILES | activation at 50 µM [%] | EC50 [µM] | Emax [%]
COc1ncc(NC(=O)c2csc3c2C2CCN3CC2)cc1S(=O)(=O)Nc1ccc(Cl)cc1 [compound 1944, N-(5-(N-(4-chlorophenyl)sulfamoyl)-6-methoxypyridin-3-yl)-5,6-dihydro-4H-4,7-ethanothieno[2,3-b]pyridine-3-carboxamide] | – | 10 to 20 | 200 to 300
